# In patent US9815787B2, “Sulfonamide derivative or pharmaceutically acceptable acid addition salt thereof” (UNIVERSITY OF TSUKUBA, priority 2013, dated 2017):
# Target: T1, OX2R (Homo sapiens, UniProt O43614)
# T1 construct: expressed in transfected cells; host or cells: CHO (Chinese hamster ovary) cells constitutively expressing the OX2R gene and NFAT-luciferase (CHOOX2R)
# T1 sequence (O43614 1-444): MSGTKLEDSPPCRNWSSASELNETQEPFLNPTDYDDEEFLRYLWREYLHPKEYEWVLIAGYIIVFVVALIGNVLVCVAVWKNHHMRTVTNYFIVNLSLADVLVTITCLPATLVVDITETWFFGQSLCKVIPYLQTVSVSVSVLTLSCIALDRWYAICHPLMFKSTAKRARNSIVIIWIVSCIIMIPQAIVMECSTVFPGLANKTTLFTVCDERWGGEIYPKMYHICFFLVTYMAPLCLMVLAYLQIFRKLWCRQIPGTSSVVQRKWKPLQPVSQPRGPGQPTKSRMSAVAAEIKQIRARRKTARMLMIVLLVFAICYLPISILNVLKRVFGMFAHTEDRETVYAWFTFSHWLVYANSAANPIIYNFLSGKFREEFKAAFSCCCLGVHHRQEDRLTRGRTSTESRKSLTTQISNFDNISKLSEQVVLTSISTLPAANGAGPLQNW
# Assay: Evaluation of agonist activity against OX2R (CHOOX2R cells, Fura2AM fluorescence, FDSS3000)
# Assay type: cell-based
# Outline: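 CHO cells stably expressing human OX2R (and NFAT-luciferase), cultured 48 h in 5% FBS DMEM. Agonist response read as change in Fura2AM fluorescence on compound addition in HEPES buffer. Final compound concentrations 0.1, 1.0 or 10 μM; 1% DMSO.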
# [1] = test compound 0.1 μM; CHOOX2R cells; relative to orexin-A as full agonist (100%)
# [2] = test compound 1.0 μM; CHOOX2R cells; relative to orexin-A as full agonist (100%)
# [3] = test compound 10 μM; CHOOX2R cells; relative to orexin-A as full agonist (100%)
# [4] = test compound 0.1 μM; relative to orexin-A as full agonist (100%); CHOOX2R cells
# [5] = test compound 1.0 μM; relative to orexin-A as full agonist (100%); CHOOX2R cells
# [6] = test compound 10 μM; relative to orexin-A as full agonist (100%); CHOOX2R cells
Compound,Response (0.1 μM (%)) [1] [%],Response (1.0 μM (%)) [2] [%],Response (10 μM (%)) [3] [%],EC50 (OX2R agonist activity; CHOOX2R cells) [nM],Emax (conversion with orexin-A as full agonist (maximum agonist activity 100%)) [%],Response (0.1 μM (%)) [4] [%],Response (1.0 μM (%)) [5] [%],Response (10 μM (%)) [6] [%]
"COc1ccc(-c2cccc(C(=O)N(C)C)c2)cc1S(=O)(=O)Nc1cccc(NCCNC(=O)c2ccccc2F)c1 [Example 43, 3′-(N-(3-((2-(2-fluorobenzamido)ethyl)amino)phenyl)sulfamoyl)-4′-methoxy-N,N-dimethyl-[1,1′-biphenyl]-3-carboxamide]",<5,55,94,300,94,,,
"COc1cc(C)c(-c2cccc(C(=O)N(C)C)c2)cc1S(=O)(=O)Nc1cccc(NCCNC(=O)c2sccc2Cl)c1 [Example 105, 3-chloro-N-(2-((3-(3′-(dimethylcarbamoyl)-4-methoxy-6-methyl-[1,1′-biphenyl]-3-ylsulfonamido)phenyl)amino)ethyl)thiophene-2-carboxamide]",,,,,,78,84,79
"COc1ccccc1C(=O)NCCNc1cccc(NS(=O)(=O)c2cc(-c3cccc(C(=O)N(C)C)c3)ccc2F)c1 [Example 107, 4′-fluoro-3′-(N-(3-((2-(2-methoxybenzamido)ethyl)amino)phenyl)sulfamoyl)-N,N-dimethyl-[1,1′-biphenyl]-3-carboxamide]",,,,,,65,79,82
"COc1ccc(-c2cccc(C(=O)N(C)C)c2)cc1S(=O)(=O)Nc1cccc(NCCNC(=O)c2ccc(Cl)s2)c1 [Example 61, 5-chloro-N-(2-((3-(3′-(dimethylcarbamoyl)-4-methoxy-[1,1′-biphenyl]-3-ylsulfonamido)phenyl)amino)ethyl)thiophene-2-carboxamide]",<5,18,69,,,,,
"COc1ccccc1C(=O)NCCNc1cccc(NS(=O)(=O)c2cc(-c3cccc(C(=O)NCCO)c3)ccc2OC)c1 [Example 74, N-(2-hydroxyethyl)-4′-methoxy-3′-(N-(3-((2-(2-methoxybenzamido)ethyl)amino)phenyl)sulfamoyl)-[1,1′-biphenyl]-3-carboxamide]",<5,51,92,,,,,
"COc1cccc(C(=O)NCCNc2cccc(NS(=O)(=O)c3cc(-c4ccccc4OC)ccc3OC)c2)c1 [Example 13, N-(2-((3-(2′,4-dimethoxy-[1,1′-biphenyl]-3-ylsulfonamide)phenyl)amino)ethyl)-3-methoxybenzamide]",,,,,,<5,64,99
"COc1cccc(C(=O)NCCNc2cccc(NS(=O)(=O)c3cc(-c4ccccc4C)ccc3OC)c2)c1 [Example 21, 3-methoxy-N-(2-((3-(4-methoxy-2′-methyl-[1,1′-biphenyl]-3-ylsulfonamide)phenyl)amino)ethyl)benzamide]",,,,,,<5,<5,11
"COc1ccc(-c2ccccc2F)cc1S(=O)(=O)Nc1cccc(NCCNC(=O)c2ccc(Cl)cc2)c1 [Example 9, 4-chloro-N-(2-((3-(2′-fluoro-4-methoxy-[1,1′-biphenyl]-3-ylsulfonamide)phenyl)amino)ethyl)benzamide]",,,,,,<5,<5,<5
"COc1ccccc1C(=O)NCCNc1cccc(NS(=O)(=O)c2cc(-c3ccccc3C(=O)N(C)C)ccc2OC)c1 [Example 79, 4′-methoxy-3′-(N-(3-((2-(2-methoxybenzamido)ethyl)amino)phenyl)sulfamoyl)-N,N-dimethyl-[1,1′-biphenyl]-2-carboxamide]",<5,18,34,,,,,
"COc1cccc(C(=O)NCCNc2cccc(NS(=O)(=O)c3cc(-c4c(F)cccc4OC)ccc3OC)c2)c1 [Example 24, N-(2-((3-(2′-fluoro-4,6′-dimethoxy-[1,1′-biphenyl]-3-ylsulfonamide)phenyl)amino)ethyl)-3-methoxybenzamide]",,,,,,<5,<5,<5
"COc1ccccc1C(=O)NCCNc1cccc(NS(=O)(=O)c2cc(-c3ccccc3Cl)ccc2OC)c1 [Example 10, N-(2-((3-(2′-chloro-4-methoxy-[1,1′-biphenyl]-3-ylsulfonamide)phenyl)amino)ethyl)-2-methoxybenzamide]",,,,,,<5,<5,41
"COc1ccc(-c2cccc(C(=O)N3CCC3)c2)cc1S(=O)(=O)Nc1cccc(NCCNC(=O)c2ccccc2Cl)c1 [Example 82, N-(2-((3-(3′-(azetidine-1-carbonyl)-4-methoxy-[1,1′-biphenyl]-3-ylsulfonamido)phenyl)amino)ethyl)-2-chlorobenzamide]",<5,51,74,,,,,

# Further lines, results first:
Response (0.1 μM (%)) [1] [%],Response (1.0 μM (%)) [2] [%],Response (10 μM (%)) [3] [%],EC50 (OX2R agonist activity; CHOOX2R cells) [nM],Emax (conversion with orexin-A as full agonist (maximum agonist activity 100%)) [%],Response (0.1 μM (%)) [4] [%],Response (1.0 μM (%)) [5] [%],Response (10 μM (%)) [6] [%],Compound
<5,16,88,,,,,,"COc1ccc(-c2cccc(C(=O)N(C)C)c2)cc1S(=O)(=O)Nc1cccc(NCCNC(=O)c2cccc(C#N)c2)c1 [Example 72, 3′-(N-(3-((2-(3-cyanobenzamido)ethyl)amino)phenyl)sulfamoyl)-4′-methoxy-N,N-dimethyl-[1,1′-biphenyl]-3-carboxamide]"
<5,33,49,,,,,,"COc1ccccc1C(=O)NCCNc1cccc(NS(=O)(=O)c2cc(-c3cccc(C(=O)NCC(F)(F)F)c3)ccc2OC)c1 [Example 78, 4′-methoxy-3′-(N-(3-((2-(2-methoxybenzamido)ethyl)amino)phenyl)sulfamoyl)-N-(2,2,2-trifluoroethyl)-[1,1′-biphenyl]-3-carboxamide]"
<5,33,73,,,,,,"COc1cccc(C(=O)NCCNc2cccc(NS(=O)(=O)c3cc(-c4ncccc4F)ccc3OC)c2)c1 [Example 93, N-(2-((3-(5-(3-fluoropyridin-2-yl)-2-methoxyphenylsulfonamido)phenyl)amino)ethyl)-3-methoxybenzamide]"
<5,<5,30,,,,,,"COc1cccc(C(=O)NCCNc2cccc(NS(=O)(=O)c3cc(-c4cccc(OC)n4)ccc3OC)c2)c1 [Example 95, 3-methoxy-N-(2-((3-(2-methoxy-5-(6-methoxypyridin-2-yl)phenylsulfonamido)phenyl)amino)ethyl)benzamide]"
,,,,,<5,15,21,"COc1cccc(C(=O)NCCNc2cccc(NS(=O)(=O)c3cc(-c4ccccc4O)ccc3OC)c2)c1 [Example 22, N-(2-((3-(2′-hydroxy-4-methoxy-[1,1′-biphenyl]-3-ylsulfonamide)phenyl)amino)ethyl)-3-methoxybenzamide]"
<5,11,68,,,,,,"COc1cc(OC)cc(-c2ccc(OC)c(S(=O)(=O)Nc3cccc(NCCNC(=O)c4ccccc4OC)c3)c2)c1 [Example 36, 2-methoxy-N-(2-((3-(3′,4,5′-trimethoxy-[1,1′-biphenyl]-3-ylsulfonamide)phenyl)amino)ethyl)benzamide]"
